Measured values as given in patent US9573908B2, “Broad spectrum pro-quorum-sensing molecules as inhibitors of virulence in vibrios” (priority 2012, dated 2017).

Experiments:
[1] = tested on: V. cholerae ΔcqsA ΔluxS double synthase mutant; format: cell-based; conditions: for induction of bioluminescence / QS activation: ΔcqsA ΔluxS double synthase mutant (wild type LuxO)
[2] = tested on: V. cholerae luxO^D47E strain; format: cell-based, Vibrio cholerae; conditions: for induction of bioluminescence / QS activation: luxO^D47E mutant
[3] = tested on: qrr4 expression in V. cholerae luxO^D47E strain; format: cell-based, Vibrio cholerae; conditions: 50 μM compound
vpsR = assay: Transcription of the σ54-dependent gene vpsR; format: cell-based, Vibrio cholerae; conditions: in the presence of compound
LuxO D47E = LuxO D47E (Vibrio cholerae serotype O1, UniProt Q9KT84, D47E); assay: Coupled-enzyme ATPase assay, LuxO D47E; format: biochemical; conditions: for inhibition of ATP hydrolysis: FIG. 5A-C; for mode of inhibition: Lineweaver-Burk plots, parallel slopes
E. coli NtrC = molecular target: T1, E. coli NtrC (Escherichia coli, UniProt P0AFB8, D54E); assay: biochemical; conditions: read-out: inhibition of ATPase activity of purified E. coli NtrC
T1 construct: His6 (N); made in house; host or cells: E. coli BL21 (DE3), strain WN2181 (pET28B-NtrC D54E)
T1 sequence (P0AFB8 1-469 D54E): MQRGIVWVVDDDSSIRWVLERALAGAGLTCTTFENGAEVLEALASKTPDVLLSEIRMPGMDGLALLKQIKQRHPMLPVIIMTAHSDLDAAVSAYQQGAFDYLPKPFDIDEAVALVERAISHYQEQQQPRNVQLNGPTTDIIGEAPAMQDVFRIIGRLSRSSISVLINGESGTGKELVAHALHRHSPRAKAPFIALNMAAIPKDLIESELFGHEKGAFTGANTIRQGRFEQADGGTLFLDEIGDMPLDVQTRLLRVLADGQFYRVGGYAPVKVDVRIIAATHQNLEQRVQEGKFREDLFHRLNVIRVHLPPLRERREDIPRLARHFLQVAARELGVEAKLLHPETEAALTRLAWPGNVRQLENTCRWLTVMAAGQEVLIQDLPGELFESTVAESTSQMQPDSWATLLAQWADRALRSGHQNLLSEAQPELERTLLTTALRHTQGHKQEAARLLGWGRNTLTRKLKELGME

[4] = tested on: V. parahaemolyticus luxO* mutant (LM4476); assay: Colony opacity of V. parahaemolyticus; format: cell-based, Vibrio parahaemolyticus; conditions: 500 μM in medium
LuxO D47E/I211F = LuxO D47E/I211F (Vibrio cholerae serotype O1, UniProt Q9KT84, D47E/I197F); assay: Coupled-enzyme ATPase assay, LuxO D47E/I211F; format: biochemical; conditions: 100 μM Compound 12, 2.5 mM ATP (FIG. 11)
[5] = tested on: V. cholerae luxO^D47E strain; format: cell-based, Vibrio cholerae; conditions: 0-200 μM compound 12, Western blot
[6] = tested on: V. parahaemolyticus luxO* strain (LM4476); format: cell-based; conditions: 200 and 500 μM compound 12, Western blot
[7] = tested on: V. parahaemolyticus LM4476 (luxO*) on cultured HeLa cells; assay: V. parahaemolyticus cytotoxicity assay on HeLa cells (LDH release); conditions: 500 μM, luxO* mutant, MOI 10

SMILES: CC(C)COC(=O)CSc1n[nH]c(=O)[nH]c1=O [Compound 11, Isobutyl 2-((3,5-dioxo-2,3,4,5-tetrahydro-1,2,4-triazin-6-yl)thio)acetate]
- EC50 (potency) of QS activation ([1]; dose-response curves, FIG. 2C, comparison in words): highest potency
- induction of bioluminescence / QS activation [1]: activate QS
- induction of bioluminescence / QS activation [2]: activate QS
- decrease of GFP production from qrr4-gfp transcriptional fusion [3]: ~3 fold
- change in transcription of vpsR (vpsR): did not change significantly
- inhibition of ATP hydrolysis (LuxO D47E): inhibit ATP hydrolysis in a dose-dependent manner
- mode of inhibition (LuxO D47E): uncompetitive inhibitors
- inhibition at 250 µM (E. coli NtrC): ~10%
- colony morphology [4]: switch from translucent to opaque

SMILES: CC(C)(C)COC(=O)CSc1n[nH]c(=O)[nH]c1=O [Compound 12, Neopentyl 2-((3,5-dioxo-2,3,4,5-tetrahydro-1,2,4-triazin-6-yl)thio)acetate]
- induction of bioluminescence / QS activation [1]: activate QS
- enhancement in potency ([2]; EC50 from FIG. 3, tert-butyl carbinol side chain versus the series): 3 fold
- induction of bioluminescence / QS activation [2]: activate QS
- inhibition of ATP hydrolysis (LuxO D47E): inhibit ATP hydrolysis in a dose-dependent manner
- mode of inhibition (LuxO D47E): uncompetitive inhibitors
- inhibition of ATPase activity of LuxO D47E/I211F (LuxO D47E/I211F): not inhibited
- inhibition at 250 µM (E. coli NtrC): ~10%
- colony morphology [4]: switch from translucent to opaque
- HapR level [5]: increased
- TcpA level [5]: decreased
- VopD production and secretion [6]: decreased production and secretion
- average cytotoxicity (HeLa cell lysis) ([7]; 2 to 3 hours post-infection): ~30%
- cytotoxicity (HeLa cell lysis) ([7]; 4-hour post-infection): ~100%
